Assay results published in patent US11185100B2 (priority 2014, dated 2021).
Where a name gives a salt, the structure may show the parent alone. Read-outs that look alike come from different tables or passages of the source.

Tests used:
T1R1/T1R3 receptor = T1R1/T1R3 receptor (Felis catus, UniProt E3UMS2); test: Activation of T1R1/T1R3 receptor by transmembrane compounds alone or with alanine, IMP, GMP, phenylalanine; HEK293 cells, calcium fluorescence (Example 5); format: cell-based, cat; details: for Max resp % of IMP +Alanine (20 mM): relative to IMP; for Thres +Alanine (20 mM) / Thres +IMP (0.2 mM): threshold concentration; for Max resp % of Ala +IMP (0.2 mM): relative to Ala; for Activity: Table 18, all transmembrane compounds tested, active / N/A (not active)
From the text: (§1) Methods: HEK293 cells that stably express T1R3 and inducibly express T1R1 were exposed to transmembrane compounds alone or in combination with one or more amino acids and/or one or more nucleotides to activate the umami receptor. Activation of the T1R1/T1R3 receptor was detected by a change in intracellular calcium levels using a calcium sensitive fluorescent dye. Cells that express T1R3 but not T1R1 were used as a control. A FLIPR® Tetra or a FlexStation® 3 was used for data capture.
In each experiment, serial dilutions of up to 10 mM of the transmembrane compound were added to the T1R1/T1R3-expressing cells.

cat T1R1/T1R3 receptor = cat T1R1/T1R3 receptor (Felis catus, UniProt E3UMS2); test: cell-based; format: cell-based
From the text: as §1, with “nucleotide derivatives” for “transmembrane compounds”, “dye and/or a luminescent reporter system.” for “dye.”

[1] = in the presence of 20 mM alanine
[2] = in the presence of 20 mM alanine, relative to response with IMP
[3] = threshold amount that activates the receptor, in the presence of 20 mM alanine
[4] = in the presence of 20 mM alanine, read-out: EC50- with Ala

Compound	+IMP (0.2 mM) Max resp % of Ala (T1R1/T1R3 receptor)	Max resp ΔF/F +IMP (0.2 mM) (T1R1/T1R3 receptor)	Max resp % of Ala +IMP (0.2 mM) (T1R1/T1R3 receptor) [%]	Thres +IMP (0.2 mM) (T1R1/T1R3 receptor) [mM]	Activity (T1R1/T1R3 receptor)	Activity (cat T1R1/T1R3 receptor)	Max resp. (ΔF/F) (cat T1R1/T1R3 receptor)	Threshold (cat T1R1/T1R3 receptor) [mM]	Max. resp. % of IMP (cat T1R1/T1R3 receptor; hek293 cells)	further results
CCC(CC)NC(=O)c1ccc(Br)o1 [5-bromo-N-(pentan-3-yl)furan-2-carboxamide]	149.6 % of Ala	1.8425 ΔF/F	149.6	0.3	active					+Alanine (20 mM) Max resp % of IMP (T1R1/T1R3 receptor): 126.8 % of IMP; +Alanine (20 mM) Max resp ΔF/F (T1R1/T1R3 receptor): 1.575 ΔF/F; +Alanine (20 mM) Thres (T1R1/T1R3 receptor): 1 mM; Max resp % of IMP +Alanine (20 mM) (T1R1/T1R3 receptor): 126.8%; Thres +Alanine (20 mM) (T1R1/T1R3 receptor): 1 mM
CCC(CC)NC(=O)c1ccc2c(c1)OCCO2 [N-(pentan-3-yl)-2,3-dihydrobenzo[b][1,4]dioxine-6-carboxamide]	70.9 % of Ala	0.8725 ΔF/F	70.9	0.075	active					+Alanine (20 mM) Max resp % of IMP (T1R1/T1R3 receptor): 25.2 % of IMP; +Alanine (20 mM) Max resp ΔF/F (T1R1/T1R3 receptor): 0.3125 ΔF/F; +Alanine (20 mM) Thres (T1R1/T1R3 receptor): 0.3 mM; Max resp % of IMP +Alanine (20 mM) (T1R1/T1R3 receptor): 25.2%; Thres +Alanine (20 mM) (T1R1/T1R3 receptor): 0.3 mM
CCCC(C)NC(=O)c1ccc(OC)c(C)c1 (stereo not drawn) [4-methoxy-3-methyl-N-(pentan-2-yl)benzamide]	128.9 % of Ala	1.5875 ΔF/F	128.9	0.025	active					+Alanine (20 mM) Max resp % of IMP (T1R1/T1R3 receptor): 126.0 % of IMP; +Alanine (20 mM) Max resp ΔF/F (T1R1/T1R3 receptor): 1.5650 ΔF/F; +Alanine (20 mM) Thres (T1R1/T1R3 receptor): 0.050 mM; Max resp % of IMP +Alanine (20 mM) (T1R1/T1R3 receptor): 126.0%; Thres +Alanine (20 mM) (T1R1/T1R3 receptor): 0.050 mM
CCCC(CCC)C(=O)Nc1ccc2c(c1)OCO2 [N-(benzo[d][1,3]dioxol-5-yl)-2-propylpentanamide]	108.0 % of Ala	0.908 ΔF/F	108.0	0.0675	active					activation of T1R1/T1R3 by the transmembrane compound alone (in words) (T1R1/T1R3 receptor; compound alone): function as an agonist
CCC(CC)NC(=O)c1ccc(C)c(C)c1 [3,4-dimethyl-N-(pentan-3-yl)benzamide; N-(1-ethylpropyl)-3,4-dimethylbenzamide]	125.7 % of Ala									+Alanine (20 mM) Max resp % of IMP (T1R1/T1R3 receptor): 97.8 % of IMP; +Alanine (20 mM) Max resp ΔF/F (T1R1/T1R3 receptor): 1.2150 ΔF/F; +Alanine (20 mM) Thres (T1R1/T1R3 receptor): 3 mM
CC1CCCC(NC(=O)c2ccc3c(c2)OCO3)C1C (stereo not drawn) [N-(2,3-dimethylcyclohexyl) benzo[d][1,3]dioxole-5-carboxamide]	95.4 % of Ala	1.175 ΔF/F	95.4	0.275	active					+Alanine (20 mM) Max resp % of IMP (T1R1/T1R3 receptor): 18.1 % of IMP; +Alanine (20 mM) Max resp ΔF/F (T1R1/T1R3 receptor): 0.225 ΔF/F; +Alanine (20 mM) Thres (T1R1/T1R3 receptor): 3 mM; Max resp % of IMP +Alanine (20 mM) (T1R1/T1R3 receptor): 18.1%; Thres +Alanine (20 mM) (T1R1/T1R3 receptor): 3 mM
O=C(NCCc1ccccc1)C(=O)NCc1cccnc1 [N1-phenethyl-N2-(pyridin-3-ylmethyl)oxalamide]		0.7625 ΔF/F	61.9	0.1	active					Max resp % of IMP +Alanine (20 mM) (T1R1/T1R3 receptor): 30.2%; Thres +Alanine (20 mM) (T1R1/T1R3 receptor): 1 mM
O=C(Nc1ncnc2c1ncn2[C@@H]1O[C@H](COP(=O)(O)O)[C@@H](O)[C@H]1O)c1ccccc1										Max resp. (ΔF/F) (cat T1R1/T1R3 receptor; [1]): 1.1 ΔF/F; Max. resp. % of IMP (cat T1R1/T1R3 receptor; [2]): 105.6 % of IMP; Threshold (cat T1R1/T1R3 receptor; [3]): 0.3 mM
CNc1ncnc2c1ncn2[C@H]1C[C@H](OP(=O)(O)O)[C@@H](COP(=O)(O)O)O1 [MRS 2179 ammonium salt hydrate, 2′-Deoxy-N^6-methyl adenosine 3′,5′-diphosphate diammonium salt]						active	1.8150 ΔF/F	0.013	146.1 % of IMP	
O=P(O)(O)OC[C@H]1O[C@@H](n2cnc3cncnc32)[C@H](O)[C@@H]1O [Purine riboside-5′-O-monophosphate, reference compound]						active	2.0266 ΔF/F		209.3 % of IMP	EC50 (cat T1R1/T1R3 receptor; [4]): 20 µM; Threshold (cat T1R1/T1R3 receptor; [3]): 0.005 mM
O=P(O)(O)OC[C@H]1O[C@@H](n2cnc3c2ncn2ccnc32)C[C@@H]1O [2′-Deoxy-1,N6-ethenoadenosine-5′-O-monophosphate]						active	0.87 ΔF/F	0.05	70.0 % of IMP	
O=P(O)(O)OC[C@H]1O[C@@H](n2cnc3c(NC4CCCC4)ncnc32)[C@H](O)[C@@H]1O [N6-Cyclopentyladenosine-5′-O-monophosphate]						active	1.2317 ΔF/F	0.013	127.2 % of IMP	EC50 (cat T1R1/T1R3 receptor; [4]): 50 µM
O=c1ccn([C@H]2O[C@@H](COP(=O)(O)O)[C@H](O)[C@@H]2O)c(=O)[nH]1 (stereo in doubt) [Uridine 5′-monophosphate disodium salt, reference compound]						active	0.2316 ΔF/F	3.000	23.9 % of IMP	
Nc1nc2c(nc(Br)n2[C@@H]2O[C@H](COP(=O)(O)O)[C@@H](O)[C@H]2O)c(=O)[nH]1 [8-Bromoguanosine-5′-O-monophosphate]						active	0.375 ΔF/F	1	30.2 % of IMP	
Nc1nc2c(ncn2[C@@H]2O[C@H](COP(O)(O)=S)C(O)C2O)c(=O)[nH]1 (stereo partly drawn) [Guanosine-5′-monophosphorothioate]						active	1.29 ΔF/F	0.0025	103.8 % of IMP	EC50 (cat T1R1/T1R3 receptor): 10 µM
O=P(O)(O)OC[C@H]1O[C@@H](n2cnc3c2ncn2ccnc32)[C@H](O)[C@@H]1O [1,N6-Ethenoadenosine-5′-O-monophosphate]							1.4766 ΔF/F	0.010	152.5 % of IMP	Activity (cat T1R1/T1R3 receptor; +Alanine (20 mM)): active; EC50 (cat T1R1/T1R3 receptor; [4]): 40 µM
CNc1ccccc1C(=O)O[C@H]1C[C@H](n2cnc3c(N)ncnc32)O[C@@H]1COP(=O)(O)O [2′-Deoxy-3′-O-(N′-methylanthraniloyl)adenosine-5′-O-monophosphate]						active	0.3975 ΔF/F	0.0025	32.0 % of IMP	
Nc1nc2c(ncn2[C@H]2C[C@H](O)[C@@H](COP(=O)(O)O)O2)c(=O)[nH]1 [2′-Deoxyguanosine 5′-monophosphate]										Activity (cat T1R1/T1R3 receptor; +Alanine (20 mM)): active; Max. resp. % of IMP (cat T1R1/T1R3 receptor; [2]): 61.2 % of IMP; Threshold (cat T1R1/T1R3 receptor; [3]): 0.060 mM
O=c1[nH]cnc2c1ncn2[C@@H]1O[C@H](COP(=O)(O)OP(=O)(O)O)[C@@H](O)[C@H]1O [Inosine 5′-diphosphate (IDP) sodium salt, inosine 5′-diphosphate (IDP) sodium salt]										Activity (cat T1R1/T1R3 receptor; +Alanine (20 mM)): active; Max resp. (ΔF/F) (cat T1R1/T1R3 receptor; [1]): 0.3 ΔF/F; Max. resp. % of IMP (cat T1R1/T1R3 receptor; [2]): 33.3 % of IMP; EC50 (cat T1R1/T1R3 receptor; read-out: EC50- with Ala): 650 µM; Threshold (cat T1R1/T1R3 receptor; [3]): 0.1625 mM
NC(=O)c1ncn(C2OC(COP(=O)(O)O)C(O)C2O)c1N [5-Aminoimidazole-4-carboxamide-1-β-D-ribofuranosyl 5′-monophosphate]						active	0.6985 ΔF/F	0.200	72.2 % of IMP	
